The subject of one data set is S. mutans UA159 biofilm. The data set can be described thus: Minimum biofilm inhibition concentration (MBIC50), MTT. The format is cell-based, Streptococcus mutans. Conditions: 24 h. The protocol: Characterization analysis of pHly -1 NPs at different pHs. The morphology of pHly-1 NPs at pH 4.5 and 7.0were analyzed by TEM and AFM, respectively 3,4. TEM images were taken by a Tecnai G2 F20 microscope with an accelerating voltage of 100 kV. The final concentration of TEM samples of pHly -1 NPs was 100 μM. An 8 μL TEM sample was pipetted onto the carbon-coated copper grid surface for 3 min and removed by filter paper. Then, 8 μ L of 2 wt % uranyl acetate was dripped onto the grid for staining 3 min. After removing the droplet with filter paper, the grid was dried in a desiccator before measurement. […]
The secondary structure of pHly-1 NPs in different solutions at pH 4.5 and 7.0 was determined by Jasco-810 spectropolarimeter using 2 mm quartz slides at 25 °C.
According to the method reported in the literature5 to prepare l iposome required in the secondary structure test. […] All spectra were recorded with a wavelength interval of 0.5 nm. […] In addition, Zeta (ζ ) potentials and hydrodynamic sizes of pHly-1 NPs were measured using a Zetasizer (Malvern Instruments, UK). […]
RNA- seq Analysis. […] T he quality and quantity of the RNA were assessed by NanoDrop 2000/2000c (Thermo Scientific, Wilmington, DE, USA). RNA integrity number (RIN) was analyzed by Agilent 2100 Bioanalyzer (Agilent Technologies, Santa Clara, CA, USA). […] The cleaned reads were mapped to the S.mutans reference genome using Rockhooper26. […]

The test system of a further data set is pepsin. The data set can be described thus: Degradation by pepsin (RP-HPLC). The class given is in vitro ADME. To be noted: peptide 100 µg/mL, pepsin 10 µg/mL, Tris buffer pH 4.0, 37 °C, 5 min, MALDI-TOF MS. As for the experimental part: Figure 7 The biosafety of pHly-1 NPs to normal oral and gastric organoids. […] (B and C) The representative gastric organoid images (B) and oral organoid images (C) after 500 µM pHly-1 NPs or CHX treatment. (D and E) the viability of gastric (D) and oral (E) organoids after treatment with pHly-1 NPs or CHX was assessed by CellTiter-Blue cell viability assay. Scale bar, 100 µm. Each experiment was repeated 3 times. (F) RP-HPLC analysis of pHly-1 NPs degradation by pepsin. pHly-1 NPs (100 µg/mL) was incubated with pepsin (10 µg/mL) in Tris buffer (pH 4.0) at 37 °C for 5 min and submitted to RP-HPLC analysis. The HPLC fractions were analyzed by MALDI-TOF MS. The black arrow represents the intact peptide of pHly-1 NPs and the molecular weight is 2865.1 Da (Figure S14). After 5 min of pepsin hydrolysis, the molecular weight of the mainly peptide fragment is 1650.6 Da (Figure S14). All of the data are represented as average ± s.d.

No end group written: not given here.

The results in this text go back to paper PMC9254247, “Dual-sensitive antibacterial peptide nanoparticles prevent dental caries” (Theranostics, 2022).

As for `[H]/N=C(\N/C(=N/[H])NCCCCCCNC(=N)NC(=N)Nc1ccc(Cl)cc1)Nc1ccc(Cl)cc1` [CHX, chlorhexidine], the MBIC50 with S. mutans UA159 biofilm (pH 5.5, BHI with 1% sucrose) worked out at 0.6 µM; in the data set with S. mutans UA159 biofilm (pH 7.0, BHI with 1% sucrose), 0.8 µM.
Regarding “KIWFHAMHIIAHFIAHQHLHQHL-NH2 [pHly-1 NPs]”, the degradation by pepsin result with pepsin is listed as “rapidly degraded”.
